Experimental data: PMC3593249 (Biochemical pharmacology, 2013)
Values joined by “and” are separate entries in the source; they are usually repeats but may differ in a detail not shown here. Equal values may be shown once.

Tests used:
α7 nAChR = settings: cited from earlier work
WT α7 nAChR [1] = target: T1, WT α7 nAChR (Homo sapiens, UniProt P36544); experiment: Concentration-response curves; format: cell-based; settings: for Imax: maximal response relative to the maximal response from ACh (ACh = 1); for EC50: net charge CRC, potency for agonism, parenthetical = curve-fit error
α7 nAChR S36G mutant [2] = target: T2, α7 nAChR S36G mutant (Homo sapiens, UniProt P36544, S58G); format: cell-based; settings: for Imax: maximal response relative to the maximal response from ACh (ACh = 1); for EC50: net charge CRC, parenthetical = curve-fit error
α7 nAChR S36A mutant [3] = target: T3, α7 nAChR S36A mutant (Homo sapiens, UniProt P36544, S58A); experiment: Concentration-response curves; format: cell-based; settings: for Imax: maximal response relative to the maximal response from ACh (ACh = 1); for EC50: net charge CRC, parenthetical = curve-fit error
α7 nAChR S36C mutant [4] = target: T4, α7 nAChR S36C mutant (Homo sapiens, UniProt P36544, S58C); experiment: Concentration-response curves; format: cell-based; settings: for Imax: maximal response relative to the maximal response from ACh (ACh = 1); for EC50: net charge CRC, parenthetical = curve-fit error
α7 nAChR S36V mutant [5] = target: T5, α7 nAChR S36V mutant (Homo sapiens, UniProt P36544, S58V); experiment: Concentration-response curves; format: cell-based; settings: for Imax: maximal response relative to the maximal response from ACh (ACh = 1); for EC50: net charge CRC, parenthetical = curve-fit error
α7 nAChR S36I mutant [6] = target: T6, α7 nAChR S36I mutant (Homo sapiens, UniProt P36544, S58I); experiment: Concentration-response curves; format: cell-based; settings: for Imax: maximal response relative to the maximal response from ACh (ACh = 1); for EC50: net charge CRC, parenthetical = curve-fit error
α7 nAChR S36T mutant [7] = target: T7, α7 nAChR S36T mutant (Homo sapiens, UniProt P36544, S58T); experiment: Concentration-response curves; format: cell-based; settings: for Imax: maximal response relative to the maximal response from ACh (ACh = 1); for EC50: net charge CRC, parenthetical = curve-fit error
WT α7 nAChR [8] = target: T1, WT α7 nAChR; experiment: Residual desensitization; format: cell-based; settings: for IC50: read-out: IC50 (RD curve), potency for producing long-lasting desensitization, 12 s applications
α7 nAChR S36G mutant [9] = target: T2, α7 nAChR S36G mutant; experiment: Residual desensitization; format: cell-based; settings: read-out: IC50 (RD curve), potency for producing long-lasting desensitization, 12 s applications
α7 nAChR S36A mutant [10] = target: T3, α7 nAChR S36A mutant; experiment: Residual desensitization; format: cell-based; settings: read-out: IC50 (RD curve), potency for producing long-lasting desensitization, 12 s applications
α7 nAChR S36C mutant [11] = target: T4, α7 nAChR S36C mutant; experiment: Residual desensitization; format: cell-based; settings: read-out: IC50 (RD curve), potency for producing long-lasting desensitization, 12 s applications
α7 nAChR S36V mutant [12] = target: T5, α7 nAChR S36V mutant; experiment: Residual desensitization; format: cell-based; settings: read-out: IC50 (RD curve), potency for producing long-lasting desensitization, 12 s applications
α7 nAChR S36I mutant [13] = target: T6, α7 nAChR S36I mutant; experiment: Residual desensitization; format: cell-based; settings: read-out: IC50 (RD curve), potency for producing long-lasting desensitization, 12 s applications
α7 nAChR S36T mutant [14] = target: T7, α7 nAChR S36T mutant; experiment: Residual desensitization; format: cell-based; settings: read-out: IC50 (RD curve), potency for producing long-lasting desensitization, 12 s applications
WT α7 nAChR [15] = target: T1, WT α7 nAChR; experiment: Induction of Ds: 30 µM PNU-120596 applied after 5-minute drug bath; format: cell-based; settings: for desensitized state after high-concentration incubation (PNU-120596 response): high concentration: BA 300 µM, 4MeBA 100 µM
WT α7 nAChR [16] = target: T1, WT α7 nAChR; experiment: 5-minute bath incubation, 1 mM ACh probe and post-control ACh applications; format: cell-based
α7 nAChR S36G mutant [17] = target: T2, α7 nAChR S36G mutant; experiment: as above; format: cell-based; settings: 30 µM drug bath, 5 minutes, then 1 mM ACh probe

T3 sequence (P36544 23-502 S58A): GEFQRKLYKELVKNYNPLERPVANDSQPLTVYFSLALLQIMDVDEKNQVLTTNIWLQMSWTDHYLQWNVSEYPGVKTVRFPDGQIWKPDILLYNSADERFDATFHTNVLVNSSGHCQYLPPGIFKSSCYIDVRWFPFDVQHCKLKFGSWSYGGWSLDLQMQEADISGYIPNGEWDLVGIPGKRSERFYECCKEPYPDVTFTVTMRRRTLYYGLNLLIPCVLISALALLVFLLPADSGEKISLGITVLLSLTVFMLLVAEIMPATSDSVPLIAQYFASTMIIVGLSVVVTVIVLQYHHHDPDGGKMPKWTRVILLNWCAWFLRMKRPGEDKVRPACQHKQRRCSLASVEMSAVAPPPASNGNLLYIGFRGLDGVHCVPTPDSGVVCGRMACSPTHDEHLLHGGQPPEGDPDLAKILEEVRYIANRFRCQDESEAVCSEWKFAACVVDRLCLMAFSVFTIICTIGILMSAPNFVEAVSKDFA
T2 sequence (P36544 23-502 S58G): as the sequence (P36544 23-502 S58A) above, with A36G counted along it
T5 sequence (P36544 23-502 S58V): as the sequence (P36544 23-502 S58A) above, with A36V counted along it
T6 sequence (P36544 23-502 S58I): as the sequence (P36544 23-502 S58A) above, with A36I counted along it
T4 sequence (P36544 23-502 S58C): as the sequence (P36544 23-502 S58A) above, with A36C counted along it
T7 sequence (P36544 23-502 S58T): as the sequence (P36544 23-502 S58A) above, with A36T counted along it
T1 sequence (P36544 23-502): as the sequence (P36544 23-502 S58A) above, with A36S counted along it

Row | SMILES | Imax (WT α7 nAChR [1]) | EC50 (WT α7 nAChR [1]) | Imax (α7 nAChR S36G mutant [2]) | EC50 (α7 nAChR S36G mutant [2]) | Imax (α7 nAChR S36A mutant [3]) | EC50 (α7 nAChR S36A mutant [3]) | Imax (α7 nAChR S36C mutant [4]) | EC50 (α7 nAChR S36C mutant [4]) | Imax (α7 nAChR S36V mutant [5]) | EC50 (α7 nAChR S36V mutant [5]) | Imax (α7 nAChR S36I mutant [6]) | EC50 (α7 nAChR S36I mutant [6]) | Imax (α7 nAChR S36T mutant [7]) | EC50 (α7 nAChR S36T mutant [7]) | IC50 (WT α7 nAChR [8]) | IC50 (α7 nAChR S36G mutant [9]) | IC50 (α7 nAChR S36A mutant [10]) | IC50 (α7 nAChR S36C mutant [11]) | IC50 (α7 nAChR S36V mutant [12]) | IC50 (α7 nAChR S36I mutant [13]) | also measured
1 | Oc1ccc(C=C2CCCN=C2c2cccnc2)c(O)c1 [2,4diOHBA, 3-(2,4-dihydroxybenzylidene)anabaseine] |  |  |  |  |  |  |  |  |  |  |  |  |  |  |  |  |  |  |  |  | RD production (α7 nAChR): practically none
2 | Cc1ccc(C=C2CCCN=C2c2cccnc2)cc1 [4MeBA, 3-(4-methylbenzylidene)anabaseine] | 0.14(0.01) | 30 µM and 29 µM | 0.31(0.02) | 9.5 µM | 0.19(0.04) | 7.9 µM | 0.14(0.02) | 5.5 µM | 0.15(0.04) | 3.5 µM | 0.088(0.007) | 17.6 µM | 0.19(0.02) | 34 µM | 110 µM | 51 µM | 145 µM | 52 µM | 91 µM | 153 µM | reduction of post-control ACh responses (WT α7 nAChR [8]; at concentration of greatest evoked response, approximately 300 µM): 80%; IC50 (α7 nAChR S36T mutant [14]): 450 µM; desensitized state after high-concentration incubation (PNU-120596 response) (WT α7 nAChR [15]): induced exclusively into Di
3 | Oc1ccc(/C=C2\CCCN=C2c2cccnc2)cc1 [4OHBA, (E)-3-(4-hydroxybenzylidene)anabaseine] | 0.385(0.006) | 6 µM and 5.5 µM | 0.89(0.06) | 0.53 µM | 0.73(0.03) | 0.57 µM | 0.63(0.02) | 0.75 µM | 0.50(0.03) | 0.25 µM | 0.46(0.03) | 2.3 µM | 0.50(0.01) | 5.9 µM | > 300 µM | 134 µM | 203 µM | 233 µM | 61 µM | > 300 µM | reduction of post-control ACh responses (WT α7 nAChR [8]; at concentrations required for maximal evoked responses, 30 µM – 300 µM): 10–20%; IC50 (RD curve) (WT α7 nAChR [8]; potency for producing long-lasting desensitization, 12 s applications): far greater than the concentration range studied; IC50 (α7 nAChR S36T mutant [14]): > 300 µM; recovery during post-control ACh applications after 5-minute incubation (WT α7 nAChR [16]; 30 µM drug bath, 5 minutes): fully recovered; post-control ACh responses, low versus high concentration incubation (WT α7 nAChR [16]; 4OHBA low 3 µM, high 30 µM): no significant difference; ACh control responses after 5-minute incubation (α7 nAChR S36G mutant [17]): nearly complete suppression of the ACh control responses; induction of Ds (response to PNU-120596 after drug bath) (WT α7 nAChR [15]; 30 µM drug bath, 5 minutes, 30 µM PNU-120596): relatively little Ds
4 | C(=C1CCCN=C1c1cccnc1)c1ccccc1 [BA, benzylidene anabaseine] | 0.31(0.01) | 40 µM and 39 µM | 0.316(0.003) | 44 µM | 0.45(0.02) | 27 µM | 0.30(0.01) | 22 µM | 0.27(0.05) | 27 µM | 0.18(0.02) | 81 µM | 0.19(0.01) | 68 µM | 270 µM | 357 µM | 91 µM | 189 µM | 217 µM | > 300 µM | IC50 (α7 nAChR S36T mutant [14]): 720 µM; desensitized state after high-concentration incubation (PNU-120596 response) (WT α7 nAChR [15]): induced exclusively into Di
5 | COc1ccc(/C=C2\CCCN=C2c2cccnc2)c(OC)c1 [GTS-21, 3-(2,4-dimethoxybenzylidene)anabaseine] |  |  |  |  |  |  |  |  |  |  |  |  |  |  |  |  |  |  |  |  | RD production (α7 nAChR): significant amounts of RD
